Key:
[1] = Crystal; visual observation
[2] = molar heat capacity at constant pressure; conditions: 101.33 kPa, Crystal

NC[C@H]1CC[C@H](C(=O)O)CC1 [trans-4-(aminomethyl)cyclohexanecarboxylic acid]
Conditions | Normal melting temperature [°C]
[1] | 249.00

[2]
Conditions | molar heat capacity at constant pressure [J/K/mol]
82.12 K | 74.7
86.25 K | 76.89
90.28 K | 79.76
94.31 K | 82.4
98.35 K | 85
102.41 K | 87.81
106.49 K | 90.49
110.6 K | 93.05
114.62 K | 95.54
118.68 K | 98.24
122.78 K | 100.67
126.81 K | 103.29
130.9 K | 105.64
135.04 K | 107.88
139.12 K | 109.84
143.27 K | 111.62
147.47 K | 113.47
151.62 K | 115.25
155.73 K | 116.97
159.91 K | 118.97
164.15 K | 120.5
168.36 K | 122.02
172.53 K | 123.18
176.78 K | 124.4
181.09 K | 125.84
185.38 K | 127.19
189.63 K | 128.43
193.83 K | 129.9
198.09 K | 130.84
202.43 K | 132.24
206.76 K | 133.38
211.06 K | 134.92
215.33 K | 136.11
219.57 K | 138
223.88 K | 139.22
228.26 K | 141.19
232.59 K | 143.17
236.84 K | 145.38
240.99 K | 147.84
245.16 K | 149.97
249.36 K | 153.29
253.5 K | 156.23
257.64 K | 159.56
261.72 K | 162.66
265.9 K | 166
270.14 K | 168.94
274.32 K | 172.81
278.44 K | 176.02
282.51 K | 180.3
286.62 K | 184.12
290.75 K | 187.46
294.85 K | 190.4
298.94 K | 194.15
303.01 K | 197.05
307.17 K | 200.02
311.37 K | 202.88
315.53 K | 205.54
319.67 K | 209.32
323.79 K | 212.66
327.88 K | 215.68
331.96 K | 219.46
336.09 K | 222.93
340.27 K | 226.39
344.44 K | 229.61
348.6 K | 233.13
352.73 K | 236.69
356.85 K | 239.65
360.96 K | 242.26
365.13 K | 245.3
369.37 K | 248.57
373.63 K | 252.41
377.94 K | 254.98
